We go through 23 compounds from patent US12473304B2, “Heterocyclic PAD4 inhibitors” (BRISTOL-MYERS SQUIBB COMPANY, priority 2020, dated 2025).

pIC50: −log10 of the molar value.

The target in this assay is human PAD4 (hPAD4) (Homo sapiens (Human), UniProt Q9UM07). Put plainly: RFMS Human PAD4 Functional Assay 1. It counts as biochemical. To be noted: RFMS assay 1; 5 nM hPAD4, 250 μM BAEE substrate, 50 μM calcium, 37° C. The method, boiled down: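 Citrullination product read by RapidFire triple-quad MRM against a modified-citrulline internal standard, after TCA stop and 30 min phenyl glyoxal step at 37 °C. Reaction: 250 μM BAEE, 5 nM human PAD4, 90 min at 37 °C, pH 7.5 HEPES buffer with 50 μM calcium and 5 μM TPEN, following 30 min compound–enzyme preincubation (max 50 μM).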
Sequence of human PAD4 (hPAD4) (Q9UM07 whole entry): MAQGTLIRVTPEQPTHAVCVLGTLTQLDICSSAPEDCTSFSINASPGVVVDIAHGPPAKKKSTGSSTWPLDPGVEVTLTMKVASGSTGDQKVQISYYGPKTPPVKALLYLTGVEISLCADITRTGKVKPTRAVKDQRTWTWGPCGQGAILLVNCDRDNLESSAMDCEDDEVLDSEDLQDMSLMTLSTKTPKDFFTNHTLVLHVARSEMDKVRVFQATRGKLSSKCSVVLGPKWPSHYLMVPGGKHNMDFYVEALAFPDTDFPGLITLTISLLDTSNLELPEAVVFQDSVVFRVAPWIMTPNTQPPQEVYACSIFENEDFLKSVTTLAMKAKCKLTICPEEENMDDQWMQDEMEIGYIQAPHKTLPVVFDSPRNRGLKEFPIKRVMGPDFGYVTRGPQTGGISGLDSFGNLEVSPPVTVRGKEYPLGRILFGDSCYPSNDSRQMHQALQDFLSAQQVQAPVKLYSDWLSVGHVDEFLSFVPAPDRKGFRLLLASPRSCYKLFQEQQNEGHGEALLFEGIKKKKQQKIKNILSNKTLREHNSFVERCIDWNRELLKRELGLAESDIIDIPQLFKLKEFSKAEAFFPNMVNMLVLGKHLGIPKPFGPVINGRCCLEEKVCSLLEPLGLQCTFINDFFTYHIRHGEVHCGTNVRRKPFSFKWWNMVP
In the case of `Cc1c(-c2cc3ccc(C(C)(C)O)nc3n2CC2CC2)nn2cc(C(=O)N3CCC[C@@H](N)C3)ccc12` [Example 380, 2-(2-{6-[(3R)-3-Aminopiperidine-1-carbonyl]-3-methylpyrazolo[1,5-a]pyridin-2-yl}-1-(cyclopropylmethyl)-1H-pyrrolo[2,3-b]pyridin-6-yl)propan-2-ol], the pIC50 – broadly, the negative decadic logarithm of the IC50, by convention in mol/L – was 6.85.

For the compound `COc1cc(C(=O)N2CCC[C@@H](N)C2)cn2nc(-c3cc4cccc(C5CN(C(=O)[C@H]6CC[C@H](O)CC6)C5)c4n3CC3CC3)c(C)c12` [Example 517, ((R)-3-Aminopiperidin-1-yl)(2-(1-(cyclopropylmethyl)-7-(1-((1r,4r)-4-hydroxycyclohexane-1-carbonyl)azetidin-3-yl)-1H-indol-2-yl)-4-methoxy-3-methylpyrazolo[1,5-a]pyridin-6-yl)methanone], the pIC50 is 7.22.

As for `Cc1c(-c2cc3cccc(OCC4CNC(=O)C4)c3n2CC2CC2)nn2cc(C(=O)N3CCC[C@@H](N)C3)cc(F)c12` (single isomer, unassigned) [Example 571], the pIC50 was 7.52.

For the compound `Cc1c(-c2cc3ccc(-c4cccc(O)c4F)nc3n2CC2CC2)nn2cc(C(=O)N3CC4CCC3[C@@H]4N)cnc12` (stereo partly drawn) [Example 109, ((7R)-7-Amino-2-azabicyclo[2.2.1]heptan-2-yl)(2-(1-(cyclopropylmethyl)-6-(2-fluoro-3-hydroxyphenyl)-1H-pyrrolo[2,3-b]pyridin-2-yl)-3-methylpyrazolo[1,5-a]pyrimidin-6-yl)methanone], the pIC50 was 6.53.

`COc1cc(C(=O)N2C[C@H](N)C[C@@H](F)C2)cn2nc(-c3cc4ccc(-c5ccn6c(C)nnc6c5)cc4n3CC3CC3)c(C)c12` [Example 31, ((3R,5R)-3-Amino-5-fluoropiperidin-1-yl)(2-(1-(cyclopropylmethyl)-6-(3-methyl-[1,2,4]triazolo[4,3-a]pyridin-7-yl)-1H-indol-2-yl)-4-methoxy-3-methylpyrazolo[1,5-a]pyridin-6-yl)methanone]: the pIC50 was 7.19.

On to `Cc1c(-c2cc3ccc(-c4ccc5c(c4)C(=O)NC5)nc3n2CC2CC2)nn2cc(C(=O)N3C[C@H](N)C[C@@H](F)C3)ccc12` [Example 83, 6-(2-(6-((3R,5R)-3-Amino-5-fluoropiperidine-1-carbonyl)-3-methylpyrazolo[1,5-a]pyridin-2-yl)-1-(cyclopropylmethyl)-1H-pyrrolo[2,3-b]pyridin-6-yl)isoindolin-1-one], for which the pIC50 was 6.42.

Turning to `Cc1c(-c2cc3cccc(C4CCN(C(=O)CCO)CC4)c3n2CC2CC2)nn2cc(C(=O)N3CCC[C@@H](N)C3)ccc12` [Example 437, (R)-1-(4-(2-(6-(3-aminopiperidine-1-carbonyl)-3-methylpyrazolo[1,5-a]pyridin-2-yl)-1-(cyclopropylmethyl)-1H-indol-7-yl)piperidin-1-yl)-3-hydroxypropan-1-one], the pIC50 is 6.96.

Regarding `Cc1c(-c2cc3ccc(-c4ccc5cn[nH]c5c4)cc3n2CC2CC2)nn2cc(C(=O)N3CC4CCC3[C@@H]4N)ccc12` (stereo partly drawn) [Example 332, (7R)-2-{2-[1-(Cyclopropylmethyl)-6-(1H-indazol-6-yl)-1H-indol-2-yl]-3-methylpyrazolo[1,5-a]pyridine-6-carbonyl}-2-azabicyclo[2.2.1]heptan-7-amine], the pIC50 is 7.70.

As for `COc1cc(C(=O)N2C[C@H](N)C[C@@H](F)C2)cn2nc(-c3cc4cccc(C5CCN(C(=O)[C@H]6CC[C@@H](O)CC6)CC5)c4n3CC3CC3)c(C)c12` [Example 407, ((3R,5R)-3-Amino-5-fluoropiperidin-1-yl)(2-(1-(cyclopropylmethyl)-7-(1-((1s,4s)-4-hydroxycyclohexane-1-carbonyl)piperidin-4-yl)-1H-indol-2-yl)-4-methoxy-3-methylpyrazolo[1,5-a]pyridin-6-yl)methanone], the pIC50 is 7.52.

For the compound `Cc1c(-c2cc3ccc(-c4ccc(N5CCCC5=O)cc4)nc3n2CC2CC2)nn2cc(C(=O)N3CC4CCC3[C@@H]4N)cc(F)c12` (stereo partly drawn) [Example 258, 1-[4-(2-{6-[(7R)-7-Amino-2-azabicyclo[2.2.1]heptane-2-carbonyl]-4-fluoro-3-methylpyrazolo[1,5-a]pyridin-2-yl}-1-(cyclopropylmethyl)-1H-pyrrolo[2,3-b]pyridin-6-yl)phenyl]pyrrolidin-2-one], the pIC50 was 6.66.

In the case of `COc1cc(C(=O)N2C[C@H](N)C[C@@H](F)C2)cn2nc(-c3cc4ccc(-c5cccc6[nH]ncc56)cc4n3CC3CC3)c(C)c12` [Example 222, (3R,5R)-1-{2-[1-(Cyclopropylmethyl)-6-(1H-indazol-4-yl)-1H-indol-2-yl]-4-methoxy-3-methylpyrazolo[1,5-a]pyridine-6-carbonyl}-5-fluoropiperidin-3-amine], the pIC50 is 6.00.

`Cc1c(-c2cc3ccc(-c4ccc5cn[nH]c5c4F)cc3n2CC2CC2)nn2cc(C(=O)N3CC4CCC3[C@@H]4N)ccc12` (stereo partly drawn) [Example 330, (7R)-2-{2-[1-(Cyclopropylmethyl)-6-(7-fluoro-1H-indazol-6-yl)-1H-indol-2-yl]-3-methylpyrazolo[1,5-a]pyridine-6-carbonyl}-2-azabicyclo[2.2.1]heptan-7-amine]: the pIC50 is 6.82.

In the case of `CC(=O)Nc1ccc(-c2ccc3cc(-c4nn5cc(C(=O)N6CCC[C@@H](N)C6)ccc5c4C)n(CC4CC4)c3c2)cn1` [Example 348, N-[5-(2-{6-[(3R)-3-Aminopiperidine-1-carbonyl]-3-methylpyrazolo[1,5-a]pyridin-2-yl}-1-(cyclopropylmethyl)-1H-indol-6-yl)pyridin-2-yl]acetamide], the pIC50 is 6.85.

`Cc1c(-c2cc3cc(F)cc(C4CCN(C(=O)[C@H]5CC[C@@H](O)CC5)CC4)c3n2CC2CC2)nn2cc(C(=O)N3CCC[C@@H](N)C3)ccc12` [Example 485, ((R)-3-Aminopiperidin-1-yl)(2-(1-(cyclopropylmethyl)-5-fluoro-7-(1-((1s,4s)-4-hydroxycyclohexane-1-carbonyl)piperidin-4-yl)-1H-indol-2-yl)-3-methylpyrazolo[1,5-a]pyridin-6-yl)methanone]: the pIC50 was 6.82.

Take `COc1cc(C(=O)N2CCC[C@@H](N)C2)cn2nc(-c3cc4ccc(N5CCC(N(C)C(C)=O)CC5)cc4n3CC3CC3)c(C)c12` [Example 252, N-[1-(2-{6-[(3R)-3-Aminopiperidine-1-carbonyl]-4-methoxy-3-methylpyrazolo[1,5-a]pyridin-2-yl}-1-(cyclopropylmethyl)-1H-indol-6-yl)piperidin-4-yl]-N-methylacetamide]: the pIC50 was 6.10.

`Cc1cc(-c2ccc3cc(-c4oc5cc(C(=O)N6CC7CCC6[C@@H]7N)ccc5c4C)n(CC4CC4)c3c2)cnc1C(N)=O` (stereo partly drawn) [Example 188, 5-(2-(6-((7R)-7-Amino-2-azabicyclo[2.2.1]heptane-2-carbonyl)-3-methylbenzofuran-2-yl)-1-(cyclopropylmethyl)-1H-indol-6-yl)-3-methylpicolinamide]: the pIC50 is 7.09.

As for `COC(C)(C)C(=O)N1CCC(c2cc(F)cc3cc(-c4nn5cc(C(=O)N6CCC[C@@H](N)C6)ccc5c4C)n(CC4CC4)c23)CC1` [Example 493, (R)-1-(4-(2-(6-(3-Aminopiperidine-1-carbonyl)-3-methylpyrazolo[1,5-a]pyridin-2-yl)-1-(cyclopropylmethyl)-5-fluoro-1H-indol-7-yl)piperidin-1-yl)-2-methoxy-2-methylpropan-1-one], the pIC50 was 6.96.

As for `Cc1c(-c2cc3ccc(N4CCC(N5CCCC5=O)CC4)cc3n2CC2CC2)nn2cc(C(=O)N3C[C@H](N)C[C@@H](F)C3)ccc12` [Example 356, 1-[1-(2-{6-[(3R,5R)-3-Amino-5-fluoropiperidine-1-carbonyl]-3-methylpyrazolo[1,5-a]pyridin-2-yl}-1-(cyclopropylmethyl)-1H-indol-6-yl)piperidin-4-yl]pyrrolidin-2-one], the pIC50 was 5.56.

`Cc1c(-c2cc3ccc(-c4ccc5[nH]ncc5c4)nc3n2CC2CC2)nn2cc(C(=O)N3C[C@H](N)C[C@@H](F)C3)ccc12` [Example 323, (3R,5R)-1-{2-[1-(Cyclopropylmethyl)-6-(1H-indazol-5-yl)-1H-pyrrolo[2,3-b]pyridin-2-yl]-3-methylpyrazolo[1,5-a]pyridine-6-carbonyl}-5-fluoropiperidin-3-amine]: the pIC50 was 6.85.

As to `Cc1c(-c2cc3cc(F)cc(C4CCN(C(=O)C5CCCO5)CC4)c3n2CC2CC2)nn2cc(C(=O)N3CCC[C@@H](N)C3)ccc12` (single isomer, unassigned) [Example 489], the negative-log IC50 (pIC50) was 7.15.

As for `COc1cc(C(=O)N2CC3CCC2[C@@H]3N)cn2nc(-c3cc4ccc(N5CC(OC)C5)nc4n3CC3CC3)c(C)c12` (stereo partly drawn) [Example 13, ((7R)-7-Amino-2-azabicyclo[2.2.1]heptan-2-yl)(2-(1-(cyclopropylmethyl)-6-(3-methoxyazetidin-1-yl)-1H-pyrrolo[2,3-b]pyridin-2-yl)-4-methoxy-3-methylpyrazolo[1,5-a]pyridin-6-yl)methanone], the pIC50 is 6.79.

As to `COc1cc(C(=O)N2C[C@H](N)C[C@@H](F)C2)cc2oc(-c3cc4ccccc4n3CC3CC3)c(C)c12` [Example 161, ((3R,5R)-3-Amino-5-fluoropiperidin-1-yl)(2-(1-(cyclopropylmethyl)-1H-indol-2-yl)-4-methoxy-3-methylbenzofuran-6-yl)methanone], the pIC50 is 6.31.

For `CO[C@@H](C)C(=O)N1CCC(c2cccc3cc(-c4nn5cc(C(=O)N6C[C@H](N)C[C@@H](F)C6)cc(F)c5c4C)n(CC4CC4)c23)CC1` [Example 423, (S)-1-(4-(2-(6-((3R,5R)-3-Amino-5-fluoropiperidine-1-carbonyl)-4-fluoro-3-methylpyrazolo[1,5-a]pyridin-2-yl)-1-(cyclopropylmethyl)-1H-indol-7-yl)piperidin-1-yl)-2-methoxypropan-1-one], the pIC50 is 6.82.
